Measurements published in PMC12892976, “Alkylation-based optimization of antifungal FPPS inhibitors yields a potent, broad-spectrum lipophilic zoledronate derivative” (mBio, 2025).
Read-outs that look alike come from different tables or passages of the source.

What was measured:
[1] = tested on: Candida glabrata; experiment: MIC/MFC broth microdilution (CLSI); conditions: Nakaseomyces glabratus, CBS138;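 also: broth microdilution following CLSI M27-Ed4, MFC taken as the lowest drug level yielding no growth once MIC wells were subcultured on SDA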
Procedure: (§1) Antifungal susceptibility was determined by broth microdilution according to the CLSI guidelines described in M27-Ed4 ([16]). […] MFC was determined by back-plating drug-treated cultures from MIC broths onto SDA plates. The MFC was defined as the lowest concentration from which no colonies could be cultured.

[2] = tested on: Aspergillus fumigatus; experiment: MIC/MFC broth microdilution (CLSI); conditions: ATCC204305
Procedure: as §1

[3] = tested on: Cryptococcus neoformans; experiment: MIC/MFC broth microdilution (CLSI); conditions: Cryptococcus neoformans;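 also: susceptibility testing followed the CLSI M27-Ed4 broth microdilution document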
Procedure: as §1

[4] = tested on: Trichophyton rubrum; experiment: checkerboard drug interaction (FICI, MICc);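 also: simplified diagonal checkerboard screen pairing azole antifungals with FPPS inhibitors, FICI calculated under the Loewe additivity model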; format: cell-based; conditions: T. rubrum
Procedure: (§2) Drug interactions between antifungals and FPPS inhibitors were investigated using a simplified checkerboard diagonal screening method ([45]). […] FICIs were determined according to the Loewe additivity model ([17]).

[5] = tested on: HEK-293T cells; experiment: MTT reduction cytotoxicity assay; format: cell-based; conditions: Homo sapiens, HEK-293T, 72 h, HEK-293T, MTT, 72 h; read-out: HEK IC50
[6] = tested on: Cryptococcus deuterogattii; experiment: checkerboard drug interaction (FICI, MICc);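 as to all read-outs here: simplified diagonal checkerboard screen pairing antifungal drugs with FPPS inhibitors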; format: cell-based; conditions: C. deuterogattii; for INH FD (MIC-MICc fold decrease): fold decrease of inhibitor MIC
Procedure: as §2

[7] = tested on: Saccharomyces cerevisiae; experiment: checkerboard drug interaction (FICI, MICc);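 as to all read-outs here: simplified diagonal checkerboard screen pairing antifungals with FPPS inhibitors, FICI calculated under the Loewe additivity model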; format: cell-based; set-up: INH MICc / INH MICc (ITR:INH) / INH MICc (KET:INH) / INH MICc (FLC:INH): unit not given beside the values; conditions: S. cerevisiae; for INH FD (MIC-MICc fold decrease): fold decrease of inhibitor MIC
[8] = tested on: Aspergillus flavus; experiment: checkerboard drug interaction (FICI, MICc);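 also: simplified diagonal checkerboard screen pairing azole antifungals with FPPS inhibitors, FICI calculated under the Loewe additivity model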; format: cell-based; set-up: INH MICc (KET:INH) / INH MICc (FLC:INH): unit not given beside the values; conditions: A. flavus
[9] = tested on: Cryptococcus deuterogattii; experiment: MIC/MFC broth microdilution (CLSI); conditions: Cryptococcus deuterogattii;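 also: broth microdilution per CLSI M27-Ed4. MFC is the lowest concentration yielding no colonies when MIC broths are subcultured onto SDA plates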
Procedure: as §1

[10] = tested on: Candida albicans; experiment: checkerboard drug interaction (FICI, MICc);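 as to all read-outs here: antifungal plus FPPS inhibitor combinations on Candida albicans tested by a simplified diagonal checkerboard screen, with FICI calculated under the Loewe additivity model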; format: cell-based; conditions: C. albicans; for INH FD (MIC-MICc fold decrease): fold decrease of inhibitor MIC
Procedure: as §2

[11] = tested on: Candida albicans; experiment: MIC/MFC broth microdilution (CLSI); format: cell-based; conditions: Candida albicans SC5314
Procedure: as §1

[12] = tested on: Aspergillus flavus; experiment: MIC/MFC broth microdilution (CLSI); conditions: ATCC204304
Procedure: as §1

[13] = tested on: Trichophyton rubrum; experiment: MIC/MFC broth microdilution (CLSI); conditions: Trichophyton rubrum
Procedure: as §1

[14] = tested on: Candida glabrata; experiment: checkerboard drug interaction (FICI, MICc);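 as to all read-outs here: simplified diagonal checkerboard screen pairing antifungals with FPPS inhibitors, FICI calculated under the Loewe additivity model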; format: cell-based; conditions: C. glabrata; for INH FD (MIC-MICc fold decrease): fold decrease of inhibitor MIC
Procedure: as §2

[15] = tested on: Aspergillus fumigatus; experiment: checkerboard drug interaction (FICI, MICc);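 as to all read-outs here: simplified diagonal checkerboard screen pairing antifungals with FPPS inhibitors against Aspergillus fumigatus, with FICI calculated under the Loewe additivity model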; format: cell-based; conditions: A. fumigatus; for INH FD (MIC-MICc fold decrease): fold decrease of inhibitor MIC
Procedure: as §2

[16] = tested on: Cryptococcus neoformans; experiment: checkerboard drug interaction (FICI, MICc);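 as to all read-outs here: antifungal plus FPPS inhibitor pairs tested against Cryptococcus neoformans by simplified diagonal checkerboard screening, FICI computed under the Loewe additivity model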; format: cell-based; conditions: C. neoformans; for INH FD (MIC-MICc fold decrease): fold decrease of inhibitor MIC
Procedure: as §2

[17] = tested on: eight fungal species; experiment: checkerboard interaction with azoles, summary across the eight species; format: cell-based; conditions: geometric mean MIC in combination with azoles
Source text: Synergy between lipophilic FPPS inhibitors and azole antifungals was investigated by determining the fractional inhibitory concentration index (FICI) (Fig. 2; Table S1 Fig. S1) ([17]). […]. Derivatives PLA9 and 11, and PDA9, 11, and 12 antagonized azoles in C. albicans, C. neoformans, and C. deuterogattii, yet were largely synergistic in C. glabrata and S. cerevisiae. […].

[18] = tested on: eight fungal species; experiment: MIC/MFC summary across the eight fungal species of Table 1; format: cell-based
Procedure: The antifungal activity of these compounds was evaluated according to CLSI guidelines ([16]).

[19] = tested on: Saccharomyces cerevisiae; experiment: MIC/MFC broth microdilution (CLSI); format: cell-based; conditions: Saccharomyces cerevisiae S288c
Procedure: as §1

[20] = Fractional Inhibitory Concentration Index, fluconazole + inhibitor
[21] = Fractional Inhibitory Concentration Index, itraconazole + inhibitor
[22] = Fractional Inhibitory Concentration Index, ketoconazole + inhibitor
[23] = MIC of the inhibitor in combination with fluconazole
[24] = MIC of the inhibitor in combination with itraconazole
[25] = MIC of the inhibitor in combination with ketoconazole
[26] = MIC-MICc fold decrease of fluconazole, negative = increase
[27] = MIC-MICc fold decrease of itraconazole, negative = increase
[28] = MIC-MICc fold decrease of ketoconazole, negative = increase
[29] = MIC-MICc fold decrease of the inhibitor, with fluconazole
[30] = MIC-MICc fold decrease of the inhibitor, with itraconazole
[31] = MIC-MICc fold decrease of the inhibitor, with ketoconazole
[32] = FLC:INH combination, MIC of the inhibitor in combination with FLC
[33] = FLC:INH combination, fold decrease of FLC MIC
[34] = ITR:INH combination, MIC of the inhibitor in combination with ITR
[35] = ITR:INH combination, fold decrease of ITR MIC
[36] = KET:INH combination, MIC of the inhibitor in combination with KET
[37] = KET:INH combination, fold decrease of KET MIC
[38] = FLC:INH combination, MIC of FLC in combination with the inhibitor
[39] = ITR:INH combination, MIC of ITR in combination with the inhibitor
[40] = KET:INH combination, MIC of KET in combination with the inhibitor

For `CCCCCCCCCN1CCC[C@H]1C(=O)N[C@@H](CC(=O)O)C(=O)O` [PLA9], the MFC [1] was over 128 µg/mL, the MIC [1] was over 128 µg/mL and the MFC [2] was over 128 µg/mL. The MIC [2] was over 128 µg/mL, the MFC [3] was over 128 µg/mL and the MIC [3] was over 128 µg/mL. The “FICI (FLC:INH)” value [4, 20] was 3, the “FICI (ITR:INH)” value [4, 21] was 2 and the “FICI (KET:INH)” value [4, 22] was 1.5. The “INH MICc (FLC:INH)” value [4, 23] was 256, the “INH MICc (ITR:INH)” value [4, 24] was 256 and the “INH MICc (KET:INH)” value [4, 25] was 128. For the same molecule, the “FLC FD (FLC:INH)” value [4, 26] was -2, the “ITR FD (ITR:INH)” value [4, 27] was 1 and the “KET FD (KET:INH)” value [4, 28] was 1. For the same molecule, the “INH FD (FLC:INH)” value [4, 29] was 1, the “INH FD (ITR:INH)” value [4, 30] was 1 and the “INH FD (KET:INH)” value [4, 31] was 2. For the same molecule, the IC50 [5] was over 256 µg/mL, the FICI ([6]; FLC:INH combination) was at least 4 and the “INH MICc” value [6, 32] was 256. The “FLC FD (MIC-MICc fold decrease)” value [6, 33] was -4, the “INH FD (MIC-MICc fold decrease)” value ([6]; FLC:INH combination) was 1 and the FICI ([6]; ITR:INH combination) was at least 4. For the same molecule, the “INH MICc” value [6, 34] was 256, the “ITR FD (MIC-MICc fold decrease)” value [6, 35] was under -4 and the “INH FD (MIC-MICc fold decrease)” value ([6]; ITR:INH combination) was 1. The FICI ([6]; KET:INH combination) was 1, the “INH MICc” value [6, 36] was 128 and the “KET FD (MIC-MICc fold decrease)” value [6, 37] was 2. For the same molecule, the “INH FD (MIC-MICc fold decrease)” value ([6]; KET:INH combination) was 2, the FICI ([7]; FLC:INH combination) was 0.31 and the “FLC MICc” value [7, 38] was 1. The “INH MICc” value [7, 32] was 16, the “FLC FD (MIC-MICc fold decrease)” value [7, 33] was 4 and the “INH FD (MIC-MICc fold decrease)” value ([7]; FLC:INH combination) was 16. For the same molecule, the FICI ([7]; ITR:INH combination) was 0.5, the “ITR MICc” value [7, 39] was 0.063 and the “INH MICc” value [7, 34] was 64. The “ITR FD (MIC-MICc fold decrease)” value [7, 35] was 4, the “INH FD (MIC-MICc fold decrease)” value ([7]; ITR:INH combination) was 4 and the FICI ([7]; KET:INH combination) was 0.19. The “KET MICc” value [7, 40] was 0.25, the “INH MICc” value [7, 36] was 16 and the “KET FD (MIC-MICc fold decrease)” value [7, 37] was 8. For the same molecule, the “INH FD (MIC-MICc fold decrease)” value ([7]; KET:INH combination) was 16, the “FICI (FLC:INH)” value [8, 20] was 2 and the “FICI (ITR:INH)” value [8, 21] was 1.5. For the same molecule, the “FICI (KET:INH)” value [8, 22] was 1, the “INH MICc (FLC:INH)” value [8, 23] was 256 and the “INH MICc (ITR:INH)” value [8, 24] was 128. The “INH MICc (KET:INH)” value [8, 25] was 128, the “FLC FD (FLC:INH)” value [8, 26] was 1 and the “ITR FD (ITR:INH)” value [8, 27] was 1. For the same molecule, the “KET FD (KET:INH)” value [8, 28] was 2, the “INH FD (FLC:INH)” value [8, 29] was 1 and the “INH FD (ITR:INH)” value [8, 30] was 2. The “INH FD (KET:INH)” value [8, 31] was 2, the MFC [9] was over 128 µg/mL and the MIC [9] was over 128 µg/mL. For the same molecule, the FICI ([10]; FLC:INH combination) was at least 4, the “INH MICc” value [10, 32] was 64 and the “FLC FD (MIC-MICc fold decrease)” value [10, 33] was under -4. The “INH FD (MIC-MICc fold decrease)” value ([10]; FLC:INH combination) was 4, the FICI ([10]; ITR:INH combination) was 0.52 and the “INH MICc” value [10, 34] was 4. For the same molecule, the “ITR FD (MIC-MICc fold decrease)” value [10, 35] was 2, the “INH FD (MIC-MICc fold decrease)” value ([10]; ITR:INH combination) was 64 and the FICI ([10]; KET:INH combination) was at least 4. The “INH MICc” value [10, 36] was 64, the “KET FD (MIC-MICc fold decrease)” value [10, 37] was under -4 and the “INH FD (MIC-MICc fold decrease)” value ([10]; KET:INH combination) was 4. For the same molecule, the MFC [11] was over 128 µg/mL, the MIC [11] was over 128 µg/mL and the MFC [12] was over 128 µg/mL. The MIC [12] was over 128 µg/mL, the MFC [13] was over 128 µg/mL and the MIC [13] was over 128 µg/mL. The FICI ([14]; FLC:INH combination) was 0.31, the “INH MICc” value [14, 32] was 4 and the “FLC FD (MIC-MICc fold decrease)” value [14, 33] was 4. The “INH FD (MIC-MICc fold decrease)” value ([14]; FLC:INH combination) was 64, the FICI ([14]; ITR:INH combination) was 0.28 and the “INH MICc” value [14, 34] was 2. The “ITR FD (MIC-MICc fold decrease)” value [14, 35] was 4, the “INH FD (MIC-MICc fold decrease)” value ([14]; ITR:INH combination) was 128 and the FICI ([14]; KET:INH combination) was 0.28. The “INH MICc” value [14, 36] was 2, the “KET FD (MIC-MICc fold decrease)” value [14, 37] was 4 and the “INH FD (MIC-MICc fold decrease)” value ([14]; KET:INH combination) was 128. The FICI ([15]; FLC:INH combination) was 2, the “FLC MICc” value [15, 38] was 128 and the “INH MICc” value [15, 32] was 256. The “FLC FD (MIC-MICc fold decrease)” value [15, 33] was 1, the “INH FD (MIC-MICc fold decrease)” value ([15]; FLC:INH combination) was 1 and the FICI ([15]; ITR:INH combination) was 0.51. For the same molecule, the “ITR MICc” value [15, 39] was 0.063, the “INH MICc” value [15, 34] was 2 and the “ITR FD (MIC-MICc fold decrease)” value [15, 35] was 2. The “INH FD (MIC-MICc fold decrease)” value ([15]; ITR:INH combination) was 128, the FICI ([15]; KET:INH combination) was 1.5 and the “KET MICc” value [15, 40] was 4. For the same molecule, the “INH MICc” value [15, 36] was 128, the “KET FD (MIC-MICc fold decrease)” value [15, 37] was 1 and the “INH FD (MIC-MICc fold decrease)” value ([15]; KET:INH combination) was 2. The FICI ([16]; FLC:INH combination) was at least 4, the “INH MICc” value [16, 32] was 256 and the “FLC FD (MIC-MICc fold decrease)” value [16, 33] was under -4. For the same molecule, the “INH FD (MIC-MICc fold decrease)” value ([16]; FLC:INH combination) was 1, the FICI ([16]; ITR:INH combination) was at least 4 and the “INH MICc” value [16, 34] was 128. For the same molecule, the “ITR FD (MIC-MICc fold decrease)” value [16, 35] was -4, the “INH FD (MIC-MICc fold decrease)” value ([16]; ITR:INH combination) was 2 and the FICI ([16]; KET:INH combination) was at least 4. The “INH MICc” value [16, 36] was 128, the “KET FD (MIC-MICc fold decrease)” value [16, 37] was -4 and the “INH FD (MIC-MICc fold decrease)” value ([16]; KET:INH combination) was 2. For the same molecule, the “GM fungal MICc” value [17] was 53.8, the MFC ([18]; across eight species, read-out: Geometric mean MFC) was over 128 µg/mL and the MIC ([18]; geometric mean across eight species, read-out: GM fungal MIC) was over 128 µg/mL. The MIC ([18]; read-out: Geometric mean MIC) was over 128 µg/mL, the MFC [19] was over 128 µg/mL and the MIC [19] was over 128 µg/mL.
